# Literature values as cited in patent US9611229B2, “1,2,3-triazole-4-amine derivatives for the treatment of sigma receptor related diseases and disorders” (LABORATORIOS DEL DR. ESTEVE S.A., priority 2013, dated 2017).
# Legend:
# sigma 2 (σ-2) site = sigma 2 (σ-2) site (Homo sapiens (Human), UniProt Q5BJF2)
# sigma 1 (σ-1) site = sigma 1 (σ-1) site (Homo sapiens (Human), UniProt Q99720)
substance,measurement,setting,value
SKF 10047,affinity for the sigma 2 (σ-2) site,sigma 2 (σ-2) site,micromolar affinity
same,affinity for the sigma 1 (σ-1) site,sigma 1 (σ-1) site,nanomolar affinity
